# In US5607967A, “Treatment of alzheimer's disease with 5-(tetradecyloxy)-2-furan carboxylic acid” (Merck & Co., Inc., priority 1994, dated 1997):
# Columns and labels:
# [1] = test system: Dopamine D1 receptor antagonist (SCH 23390) induced catalepsy; assay: SCH 23390 induced catalepsy (Bar method); type: in vivo, rat; settings: carrier pretreatment, 24 h later 0.5 mg/kg SCH23390
# Experimental: Rats were pretreated with 0.4 mg/kg TOFA or with carrier (S.C.). Twenty-four hours later, the rats were challenged with 0.5 mg/kg SCH23390, a Dopamine D1 antagonist, and the duration of catalepsy was monitored.
# Catalepsy was determined by a modification of the Bar method (Undie and Friedman, 1988). A steel bar, 1.1 cm in diameter and 50 cm long, was suspended at a height of 10 cm above the working surface. Three sides of the bench around the bar were walled off with brown cardboard, and the linings on the bench surface were selected to be of the same color with the cardboard walls. The animal's hind limbs were freely placed on the bench, the fail laid out to the back, and the forelimbs placed over the bar. The length of time a rat stayed up on the bar was noted up to a preset cut-off point of 120 s. The time was counted off upon observing any of the following actions: (1) the animal came off, placing its two forepaws on the bench, (2) the animal climbed onto or over the bar with both hind limbs, (3) the animal initiated locomotion along or around the bar. Subsequently, time readings were translated into scores by awarding a score of 1 for each successfully completed 5 s on the bar. For each observation time, catalepsy scores were averaged for all the animals in a group to give the Mean Score of the group at that observation time. Further, the scores for each animal at all the observation times were added to give the total score for that animal. The mean of this last group of numbers was called the Mean Total Score of the group.
# Catalepsy scores were analyzed by computer in accordance with the statistical procedures outlined by Winer, B. J.: Statistical principles in experimental design. McGraw-Hill, New York, pp. 10-428, 1971. Generally, for a given set of comparisons, observations were subjected to an appropriate analysis of variance followed by two-tailed Dunnett or Student's t-tests to detect differences between treatment groups.
# [2] = test system: GR/NER chimeric receptor; assay: Activation of GR/NER in CV1 cells (luciferase); settings: for Fold of stimulation GR/NER, Control: without dopamine
# Experimental: The ligand dependent transcription assays were performed as described in Example 4, using CV1 cells in place of COS cells. The transfected CV1 cells were treated with dopamine, TOFA, or with a combination of TOFA and dopamine at the indicated concentrations and tested for luciferase activity.
# CV1 cells were co-transfected with the MMTV-Luciferase reporter gene (pJA358) and the GR/NER chimeric receptor as described in Example 4. The cells were treated with increasing amount of the dopamine D1 receptor antagonist SCH 23390 with or without 50 μM […] dopamine.
# [3] = chronic treatment, medial cholinergic pathway lesions; cited from earlier work
# [4] = molecular target: T1, GR/PPAR chimeric receptor (Mus musculus, UniProt P23204); assay: Ligand dependent transcription assay, GR/PPAR chimeric receptor with MMTV-luciferase reporter; type: cell-based
# T1 construct: COS cells, MMTV-luciferase
# T1 sequence (P23204 1-468): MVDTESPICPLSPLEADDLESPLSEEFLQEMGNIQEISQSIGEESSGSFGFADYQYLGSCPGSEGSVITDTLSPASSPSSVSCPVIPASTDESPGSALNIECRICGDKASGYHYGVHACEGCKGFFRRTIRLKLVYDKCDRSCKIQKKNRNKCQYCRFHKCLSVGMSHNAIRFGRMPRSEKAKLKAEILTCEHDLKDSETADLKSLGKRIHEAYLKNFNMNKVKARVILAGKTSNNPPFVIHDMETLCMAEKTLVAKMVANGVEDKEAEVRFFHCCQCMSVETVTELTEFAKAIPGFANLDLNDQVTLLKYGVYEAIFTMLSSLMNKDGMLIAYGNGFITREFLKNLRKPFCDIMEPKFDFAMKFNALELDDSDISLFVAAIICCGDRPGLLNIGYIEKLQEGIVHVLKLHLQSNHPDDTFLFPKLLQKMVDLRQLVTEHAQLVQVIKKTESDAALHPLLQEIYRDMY
# T1 sequence (P06537 1-792 partner): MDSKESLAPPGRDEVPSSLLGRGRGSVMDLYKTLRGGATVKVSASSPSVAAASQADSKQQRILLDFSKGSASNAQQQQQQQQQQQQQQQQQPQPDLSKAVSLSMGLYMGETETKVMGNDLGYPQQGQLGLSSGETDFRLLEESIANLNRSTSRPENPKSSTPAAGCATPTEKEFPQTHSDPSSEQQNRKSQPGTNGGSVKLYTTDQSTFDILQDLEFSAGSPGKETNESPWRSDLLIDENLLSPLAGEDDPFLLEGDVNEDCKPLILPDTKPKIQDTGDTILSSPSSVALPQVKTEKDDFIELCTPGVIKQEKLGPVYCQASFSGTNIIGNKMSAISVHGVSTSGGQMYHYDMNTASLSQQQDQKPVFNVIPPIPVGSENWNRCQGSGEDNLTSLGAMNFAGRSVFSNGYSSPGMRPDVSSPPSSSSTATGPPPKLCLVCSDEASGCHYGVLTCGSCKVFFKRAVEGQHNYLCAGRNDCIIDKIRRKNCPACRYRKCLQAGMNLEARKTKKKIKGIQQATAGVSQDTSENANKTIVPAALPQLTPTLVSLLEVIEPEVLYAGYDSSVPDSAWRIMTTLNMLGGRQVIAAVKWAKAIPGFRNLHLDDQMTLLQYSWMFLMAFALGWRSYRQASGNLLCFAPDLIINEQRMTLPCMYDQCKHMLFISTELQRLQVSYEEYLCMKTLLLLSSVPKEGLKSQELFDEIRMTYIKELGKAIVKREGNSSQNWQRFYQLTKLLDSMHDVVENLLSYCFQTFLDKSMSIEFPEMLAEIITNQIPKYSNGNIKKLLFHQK
# Experimental: Similar hybrid receptors GR/NER, GR/NUC and GR/PPAR, in identical expression plasmid backgrounds were prepared essentially as described for the construction of the GR/mPPAR and GR/NUC chimeric receptors in Schmidt et al., "Identification of a new member of the steroid hormone receptor superfamily that is activated by a peroxisome proliferator and fatty acids," Mol. Endocrinol., 6(10):1634-41, 1992, and in Boie et al., "Enantioselective activation of the peroxisome proliferator-activated receptor", J. Biol. Chem. 268(8):5530-4, 1993.
# Briefly, the amino terminal portion of the mouse glucocorticoid receptor (mGR), that includes the DNA binding domain was fused to the putative ligand binding domains of the nuclear receptor NER, hNUC-I (Schmidt et al., 1992), mPPAR (Issenmann and Green, 1990) to form the respective chimeric receptors GR/NER, GR/NUC and GR/PPAR. The GR/NER chimeric receptor was constructed as described for the GR/NUC and GR/PPAR hybrid receptors (Schmidt et al., 1992; Boie et al). The cDNA sequences coding for amino acids Arg^155 and Glu^156 of the NER receptor were converted to the Xho I restriction site, that was later used for the ligation to the GR cDNA sequences that coded for the DNA binding domain. Thus, converting amino acid residues Arg^155 and Glu^156 of NER receptor to amino acid residues Ser^155 and His^156.
# The ligand transcription assay mediated by GR/PPAR in COS cells was performed as described in Example 4. The cells were treated with TOFA and Cerulenin at 0.1, 1, 10 and 100 μM.
# [5] = Toxicity to transfected COS cells in the transcription assay; type: cell-based; settings: monkey, GR/PPAR transcription assay, read-out: Concentrations toxic to the cells
# Experimental: The ligand transcription assay mediated by GR/PPAR in COS cells was performed as described in Example 4. The cells were treated with TOFA and Cerulenin at 0.1, 1, 10 and 100 μM. Concentrations of cerulenin above 10 μM were toxic to the cells.
SMILES,Catalepsy Duration [1],Effect on transcription mediated by GR/NER in CV1 cells [2],Effect on inhibition of luciferase expression caused by dopamine ([2]; 50 μM dopamine),"Fold of stimulation GR/NER, Dopamine (50 μM) ([2]; SCH-23390 0.1 μM with 50 μM dopamine)","Fold of stimulation GR/NER, Control ([2]; SCH-23390 0.1 μM)","Fold of stimulation GR/NER, Dopamine (50 μM) ([2]; SCH-23390 1.0 μM with 50 μM dopamine)","Fold of stimulation GR/NER, Control ([2]; SCH-23390 1.0 μM)","Fold of stimulation GR/NER, Dopamine (50 μM) ([2]; SCH-23390 10.0 μM with 50 μM dopamine)","Fold of stimulation GR/NER, Control ([2]; SCH-23390 10.0 μM)","Fold of stimulation GR/NER, Dopamine (50 μM) ([2]; SCH-23390 100 μM with 50 μM dopamine)","Fold of stimulation GR/NER, Control ([2]; SCH-23390 100 μM)",Radial-arm maze performance [3],Expression mediated by GR/PPAR [4],"fold induction at 0.1 µM ([4]; 0.1 μM, COS cells, Table 2, read-out: Fold of stimulation GR/PPAR)","fold induction at 1 µM ([4]; 1.0 μM, COS cells, Table 2, read-out: Fold of stimulation GR/PPAR)","fold induction at 10 µM ([4]; 10.0 μM, COS cells, Table 2, read-out: Fold of stimulation GR/PPAR)",MCC [5]
"CN1CCc2cc(Cl)c(O)cc2C(c2ccccc2)C1 (single isomer, unassigned) [SCH-23390, 8-chloro-2,3,4,5-tetrahydro-3-methyl-5-phenyl-1H-3-benzazepin-7-ol hemimaleate]",3.1 ± 1.3 s,stimulated the transcription,can reverse the inhibition of luciferase expression,0.59 ± 0.06 fold,1.32 ± 0.15 fold,0.55 ± 0.09 fold,1.22 ± 0.11 fold,0.83 ± 0.12 fold,1.64 ± 0.38 fold,2.61 ± 0.86 fold,2.38 ± 0.19 fold,reversed the lesion-induced impaired performance,–,–,–,–,–
"C/C=C/C/C=C/CCC(=O)[C@H]1O[C@H]1C(N)=O [Cerulenin, cerulenin, reference compound]",–,–,–,–,–,–,–,–,–,–,–,–,did not stimulate transcription,1.03 ± 0.12,1.13 ± 0.05,0.58 ± 0.11,> 10 µM
